Like-named read-outs stand apart in the source and are kept apart here.
Assays:
HDAC2 [1] = molecular target: T1, HDAC2 (Homo sapiens, UniProt Q92769); test: HDAC2 degradation, western blot in MM.1S cells; format: cell-based; parameters: endogenous in cells; host or cells: MM.1S
Protocol: (§1) Subsequently, degrader 10a was investigated at various concentrations (1, 10, and 25 µM) for degradation effects on different HDAC isoforms, including HDAC2, HDAC3, and HDAC4. […] In detail, 10a induced a modest degradation of HDAC2 (D max = 46% at 25 μM), which may be attributed to the high structural similarity between HDAC1 and HDAC2, particularly in their catalytic domains.
(§2) The MM.1S was obtained from ATCC (Manassas, VA, USA). MM.1S cells were cultivated in RPMI 1640 medium supplemented with 10% FBS, 100 IU/mL penicillin, 0.1 mg/mL streptomycin, and 1 mM sodium pyruvate at 37°C in a 5% CO2 atmosphere.
(§3) The MM.1S cells (3 × 10^6 cells/mL) were seeded into cell culture flasks and, after 72 h, treated with the indicated concentration of compound or DMSO for the given time. Cell lysis was performed with Cell Extraction Buffer and the addition of Halt Protease Inhibitor Cocktail and phenylmethanesulfonyl fluoride. Protein content was determined by Pierce BCA Protein Assay Kit. Samples were denatured by Laemmli 2× Concentrate, and Precision Plus Protein Unstained Standard was used as a molecular weight marker in all cases. SDS‐PAGE was performed with 10% Mini‐PROTEAN TGX Stain‐Free Gel (Catalog# 458035, Bio‐Rad, Hercules, CA, USA) at 200 V for 50 min (Catalog# 458035, Bio‐Rad). Afterwards, proteins were transferred with the Trans‐Blot Turbo Transfer System to Immobilon‐FL PVDF membranes at 1.0 A for 30 min and incubated with 5% milk‐powder solution for 1 h at room temperature under slight agitation. […] The ChemiDoc XRS+ System was used for detection, and Image Lab Software 6.1 (Bio‐Rad, Hercules, CA, USA) for quantification.

HDAC1 [2] = molecular target: T2, HDAC1 (Homo sapiens, UniProt Q13547); test: HDAC enzyme inhibition assay (ZMAL substrate), HDAC1; format: biochemical; parameters: purchased BPS Bioscience 50051; settings: n = 2, mean ± SD
T2 sequence (Q13547 whole entry): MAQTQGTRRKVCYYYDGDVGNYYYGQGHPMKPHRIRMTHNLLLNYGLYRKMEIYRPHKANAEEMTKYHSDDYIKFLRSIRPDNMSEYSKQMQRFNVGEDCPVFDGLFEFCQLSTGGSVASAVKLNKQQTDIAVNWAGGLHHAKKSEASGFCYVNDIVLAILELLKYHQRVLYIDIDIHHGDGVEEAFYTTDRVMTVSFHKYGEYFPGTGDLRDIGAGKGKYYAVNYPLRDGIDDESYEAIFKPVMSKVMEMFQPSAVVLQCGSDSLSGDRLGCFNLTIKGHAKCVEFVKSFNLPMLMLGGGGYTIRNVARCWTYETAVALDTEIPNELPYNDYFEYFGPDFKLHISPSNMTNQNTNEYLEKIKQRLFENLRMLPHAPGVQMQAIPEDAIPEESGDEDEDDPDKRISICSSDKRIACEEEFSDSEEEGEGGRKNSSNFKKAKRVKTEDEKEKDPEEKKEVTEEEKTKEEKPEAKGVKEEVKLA
Protocol: (§4) The total assay volume of 50 μL (HDAC2/3/6 max. 1% DMSO; HDAC1 max. 5% DMSO) was incubated at 37°C for 90 min. Subsequently, 50 μL of trypsin (0.4 mg/mL) in trypsin buffer (50 mM Tris−HCl, pH 8.0, 100 mM NaCl) was added, followed by an additional 30 min of incubation at 37°C. Fluorescence (excitation λ = 355 nm, emission λ = 460 nm) was measured using a FLUOstar OPTIMA microplate reader. The IC50 was determined by plotting dose–response curves and performing nonlinear regression using GraphPad Prism.
as §4, with “by” for “by an”, “dose response” for “dose–response”, “Prism.^[3-6]” for “Prism.”

[3] = molecular target: T3, Human recombinant HDAC3/NcoR2 (Homo sapiens, UniProt O15379); test: HDAC enzyme inhibition assay (ZMAL substrate), HDAC3; format: biochemical; settings: n = 2, mean ± SD
T3 construct: purchased BPS Bioscience 50003
T3 sequence (O15379 whole entry): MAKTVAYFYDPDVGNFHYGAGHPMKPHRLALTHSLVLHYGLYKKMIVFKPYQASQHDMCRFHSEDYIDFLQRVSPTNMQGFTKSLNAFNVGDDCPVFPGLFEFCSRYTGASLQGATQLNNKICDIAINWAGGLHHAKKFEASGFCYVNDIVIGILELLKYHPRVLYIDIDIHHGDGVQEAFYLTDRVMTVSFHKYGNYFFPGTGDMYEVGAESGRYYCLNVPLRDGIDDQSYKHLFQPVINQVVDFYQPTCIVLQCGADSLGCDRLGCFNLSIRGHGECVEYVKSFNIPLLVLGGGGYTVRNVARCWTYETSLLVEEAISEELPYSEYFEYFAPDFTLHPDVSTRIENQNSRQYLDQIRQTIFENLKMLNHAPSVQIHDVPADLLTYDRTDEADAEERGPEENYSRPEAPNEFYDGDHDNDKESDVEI
T3 sequence (Q9Y618 395-489 partner limits assumed): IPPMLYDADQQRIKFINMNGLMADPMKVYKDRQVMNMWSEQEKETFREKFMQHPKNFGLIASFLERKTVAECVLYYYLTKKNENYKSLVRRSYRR
Protocol: as §4
as §4, with “by” for “by an”, “dose response” for “dose–response”, “Prism.^[3-6]” for “Prism.”

HDAC2 [4] = molecular target: T1, HDAC2; test: HDAC enzyme inhibition assay (ZMAL substrate), HDAC2; format: biochemical; parameters: purchased BPS Bioscience 50052; settings: n = 2, mean ± SD
Protocol: as §4
as §4, with “by” for “by an”, “dose response” for “dose–response”, “Prism.^[3-6]” for “Prism.”

[5] = tested on: acetylated α‐tubulin (marker of decreased HDAC6 activity); test: Cellular target engagement: immunoblot of acetylated α-tubulin; format: cell-based; settings: MM.1S cells, 10 µM, 24 h
Protocol: (§5) Immunoblot analysis of acetylated histone H3 (A) and α‐tubulin (B) in MM.1S cell lysates after treatment with the indicated compounds (10 µM) or vehicle (DMSO) for 24 h. Representative images from a total of n = 2 replicates.
as §3, with “agitation. Subsequently, the membranes were incubated with anti‐HDAC1 (Catalog# 5356S, Cell Signaling Technology, Denver, MA, USA), anti‐HDAC2 (Catalog# 9959S, Cell Signaling Technology, Denver, MA, USA), anti‐HDAC3 (Catalog# 85057S, Cell Signaling Technology, Denver, MA, USA), anti‐HDAC4 (Catalog# 7628S, Cell Signaling Technology, Denver, MA, USA), anti‐HDAC6 (Catalog# 7558S, Cell Signaling Technology, Denver, MA, USA), anti‐acetyl‐histone H3 (Catalog# 9677S, Cell Signaling Technology, Denver, MA, USA), anti‐acetyl‐α‐tubulin (Catalog# 5335, Cell Signaling Technology, Denver, MA, USA), or anti‐GAPDH (Catalog# T0004, Affinity Biosciences, Cincinnati, OH, USA) antibody solutions in 1:1000–1:20000 dilutions at room temperature under slight agitation for 1 h, then put membranes at 4°C for overnight.” for “agitation.”

HDAC4 = molecular target: T4, HDAC4 (Homo sapiens, UniProt P56524); test: HDAC4 degradation, western blot in MM.1S cells; format: cell-based; settings: MM.1S cells, 1, 10, 25 μM
T4 construct: HDAC2, HDAC3, and HDAC4 levels were detected by immunoblot analysis; endogenous in cells; host or cells: MM.1S
T4 sequence (P56524 whole entry): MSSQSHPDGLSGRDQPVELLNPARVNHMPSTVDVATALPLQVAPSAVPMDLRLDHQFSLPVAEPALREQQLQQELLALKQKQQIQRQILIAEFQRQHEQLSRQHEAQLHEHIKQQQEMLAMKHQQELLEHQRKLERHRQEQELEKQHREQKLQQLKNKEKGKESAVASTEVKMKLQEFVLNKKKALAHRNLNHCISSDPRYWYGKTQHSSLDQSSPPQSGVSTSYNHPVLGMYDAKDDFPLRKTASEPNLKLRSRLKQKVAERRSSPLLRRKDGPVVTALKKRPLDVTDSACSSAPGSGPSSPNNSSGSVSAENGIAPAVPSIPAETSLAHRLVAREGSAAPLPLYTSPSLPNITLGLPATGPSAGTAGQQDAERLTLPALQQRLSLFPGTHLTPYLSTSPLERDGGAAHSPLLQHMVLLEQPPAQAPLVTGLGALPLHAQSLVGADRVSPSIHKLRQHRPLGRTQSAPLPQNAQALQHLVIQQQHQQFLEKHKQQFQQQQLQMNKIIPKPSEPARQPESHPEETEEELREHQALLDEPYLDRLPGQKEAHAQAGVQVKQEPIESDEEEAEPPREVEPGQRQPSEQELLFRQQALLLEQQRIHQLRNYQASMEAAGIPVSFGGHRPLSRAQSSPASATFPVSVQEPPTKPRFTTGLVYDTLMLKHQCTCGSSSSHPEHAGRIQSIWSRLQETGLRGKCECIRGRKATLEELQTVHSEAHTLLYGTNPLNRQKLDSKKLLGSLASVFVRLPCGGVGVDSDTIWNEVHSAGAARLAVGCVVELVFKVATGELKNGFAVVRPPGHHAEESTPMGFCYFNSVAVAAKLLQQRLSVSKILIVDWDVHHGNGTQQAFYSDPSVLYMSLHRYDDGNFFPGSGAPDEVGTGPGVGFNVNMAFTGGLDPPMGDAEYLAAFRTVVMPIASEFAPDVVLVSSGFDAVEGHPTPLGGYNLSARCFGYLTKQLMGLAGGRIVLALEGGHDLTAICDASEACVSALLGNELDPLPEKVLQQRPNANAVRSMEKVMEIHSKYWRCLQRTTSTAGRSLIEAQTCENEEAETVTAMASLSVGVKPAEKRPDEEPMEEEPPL
Protocol: as §1, §2
(§6) The MM.1S cells (3 × 10^6 cells/mL) were seeded into cell culture flasks and, after 72 h, treated with the indicated concentration of compound or DMSO for the given time. Cell lysis was performed with Cell Extraction Buffer and the addition of Halt Protease Inhibitor Cocktail and phenylmethanesulfonyl fluoride. Protein content was determined by Pierce BCA Protein Assay Kit. Samples were denatured by Laemmli 2× Concentrate, and Precision Plus Protein Unstained Standard was used as a molecular weight marker in all cases. […] The ChemiDoc XRS+ System was used for detection, and Image Lab Software 6.1 (Bio‐Rad, Hercules, CA, USA) for quantification.

MM.1S cells [6] = test: CellTiter-Glo cell viability assay; format: cell-based; settings: Homo sapiens, MM1.S, 72 h, read-out: IC50 cell viability
Protocol: The MM.1S was obtained from ATCC (Manassas, VA, USA).
(§7) For this purpose, the dilution series was prepared at 200× concentration in DMSO and then further diluted to 10× concentration in medium. The final DMSO concentration was 0.5%. The toxicity of compounds was assessed after 72 h using the CellTiter‐Glo 2.0 cell viability assay. Luminescence was then measured, and the IC50 was determined by plotting dose–response curves and performing nonlinear regression using GraphPad Prism.
as §7, with “series were” for “series was”, “the CellTiter-Glo” for “the CellTiter‐Glo”, “plotting dose-response” for “plotting dose–response”, “GraphPad Prism.^[1]” for “GraphPad Prism.”

[7] = tested on: acetylated histone H3 (indicator of reduced HDAC1‐3 activity); test: Cellular target engagement: immunoblot of acetylated histone H3; format: cell-based; settings: MM.1S cells, 10 µM, 24 h
Protocol: as §5
as §3, with “agitation. Subsequently, the membranes were incubated with anti‐HDAC1 (Catalog# 5356S, Cell Signaling Technology, Denver, MA, USA), anti‐HDAC2 (Catalog# 9959S, Cell Signaling Technology, Denver, MA, USA), anti‐HDAC3 (Catalog# 85057S, Cell Signaling Technology, Denver, MA, USA), anti‐HDAC4 (Catalog# 7628S, Cell Signaling Technology, Denver, MA, USA), anti‐HDAC6 (Catalog# 7558S, Cell Signaling Technology, Denver, MA, USA), anti‐acetyl‐histone H3 (Catalog# 9677S, Cell Signaling Technology, Denver, MA, USA), anti‐acetyl‐α‐tubulin (Catalog# 5335, Cell Signaling Technology, Denver, MA, USA), or anti‐GAPDH (Catalog# T0004, Affinity Biosciences, Cincinnati, OH, USA) antibody solutions in 1:1000–1:20000 dilutions at room temperature under slight agitation for 1 h, then put membranes at 4°C for overnight.” for “agitation.”

HDAC3 = molecular target: T5, HDAC3 (Homo sapiens, UniProt O15379); test: HDAC3 degradation, western blot in MM.1S cells; format: cell-based; settings: MM.1S cells, 1, 10, 25 μM
T5 construct: endogenous in cells; host or cells: MM.1S
T5 sequence (O15379 whole entry): as the sequence (O15379 whole entry) above
Protocol: as §1, §2, §6

Human recombinant HDAC6 = molecular target: T6, Human recombinant HDAC6 (Homo sapiens, UniProt Q9UBN7); test: HDAC enzyme inhibition assay (ZMAL substrate), HDAC6; format: biochemical; settings: n = 2, mean ± SD
T6 construct: purchased BPS Bioscience 50006
T6 sequence (Q9UBN7 1-1215): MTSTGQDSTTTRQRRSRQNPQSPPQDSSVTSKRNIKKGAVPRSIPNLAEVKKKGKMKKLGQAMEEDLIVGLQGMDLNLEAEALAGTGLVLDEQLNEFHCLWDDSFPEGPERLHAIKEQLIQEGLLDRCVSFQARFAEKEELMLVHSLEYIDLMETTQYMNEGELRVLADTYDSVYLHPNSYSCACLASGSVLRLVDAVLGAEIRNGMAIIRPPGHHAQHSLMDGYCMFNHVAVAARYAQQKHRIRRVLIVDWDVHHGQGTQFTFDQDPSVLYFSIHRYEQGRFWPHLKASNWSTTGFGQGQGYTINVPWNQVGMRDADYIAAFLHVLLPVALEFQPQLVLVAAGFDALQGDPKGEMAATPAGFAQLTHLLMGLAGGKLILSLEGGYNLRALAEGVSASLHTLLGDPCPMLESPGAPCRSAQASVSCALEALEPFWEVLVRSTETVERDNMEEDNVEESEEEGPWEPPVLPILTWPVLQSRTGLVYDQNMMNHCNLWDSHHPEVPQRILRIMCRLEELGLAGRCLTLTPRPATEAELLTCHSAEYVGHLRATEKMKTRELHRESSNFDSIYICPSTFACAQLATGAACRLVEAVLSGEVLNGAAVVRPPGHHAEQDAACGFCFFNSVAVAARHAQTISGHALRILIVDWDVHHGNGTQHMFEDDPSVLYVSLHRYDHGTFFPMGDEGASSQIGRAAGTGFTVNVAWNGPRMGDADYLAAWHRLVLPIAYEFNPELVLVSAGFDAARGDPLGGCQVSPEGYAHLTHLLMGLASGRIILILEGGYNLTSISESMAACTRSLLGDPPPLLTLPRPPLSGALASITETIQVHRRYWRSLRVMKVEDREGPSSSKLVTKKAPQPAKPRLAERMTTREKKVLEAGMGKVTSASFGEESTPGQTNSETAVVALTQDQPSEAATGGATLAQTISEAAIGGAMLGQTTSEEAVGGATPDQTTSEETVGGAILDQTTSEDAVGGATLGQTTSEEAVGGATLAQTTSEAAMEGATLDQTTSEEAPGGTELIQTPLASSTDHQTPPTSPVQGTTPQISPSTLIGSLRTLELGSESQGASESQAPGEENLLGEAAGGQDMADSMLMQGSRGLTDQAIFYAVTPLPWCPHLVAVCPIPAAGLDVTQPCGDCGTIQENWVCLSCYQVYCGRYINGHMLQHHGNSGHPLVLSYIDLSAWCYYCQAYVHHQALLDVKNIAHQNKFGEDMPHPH
Protocol: as §4
as §4, with “by” for “by an”, “dose response” for “dose–response”, “Prism.^[3-6]” for “Prism.”

HDAC1 [8] = molecular target: T2, HDAC1; test: HDAC1 degradation, western blot in MM.1S cells; format: cell-based; parameters: endogenous in cells; host or cells: MM.1S; settings: 24 h
Protocol: First, the multiple myeloma cell line MM.1S was treated with varying concentrations (1, 10, and 25 µM) of degraders 10a–d for 6 and 24 h, respectively. HDAC1 and HDAC6 were selected for investigation due to their critical roles in various diseases such as cancer. HDAC1 and HDAC6 protein levels were subsequently evaluated using western blot analysis. […] This limited efficacy could be due to insufficient incubation time of the compounds with MM.1S cells. […] All compounds still exerted no degradation of HDAC6 at different concentrations after 24 h of treatment. However, different from 10b–d, degrader 10a, which contains a hydroxamic acid as ZBG, achieved substantial degradation of HDAC1 with a maximal degradation (D max) value of 74% at 25 μM. Consequently, Compound 10a was selected for further biological evaluations based on the initial screening results.
as §2, §3

MM.1S cells [9] = test: Annexin V-FITC/PI apoptosis assay, flow cytometry; format: cell-based; settings: 10 μM, 48 h
Protocol: The percentage of cells that were annexin V‐positive but PI‐negative was considered as early apoptotic, whereas the percentage of cells that were both annexin V‐ and PI‐positive was considered as late apoptotic. Data are presented as mean ± standard deviation (n = 2 biological replicates, each performed in duplicates). Statistical analysis was performed by using one‐way ANOVA in GraphPad Prism 8. Statistical significance was indicated with asterisks (****p ≤ 0.0001).
MM.1S cells (3 × 10^5 cells/well) were seeded in 24‐well plates and treated with the indicated concentration of compound or DMSO for 48 h under cell culture conditions. Subsequently, cells were washed with cell staining buffer (HEPES 0.1 M, NaCl 1.4 M, CaCl2·3H2O 25 mM), resuspended in 300 µL, and 150 µL was transferred in a 96‐well plate.

T1 sequence (Q92769 whole entry, the tested form may be a part, canonical isoform): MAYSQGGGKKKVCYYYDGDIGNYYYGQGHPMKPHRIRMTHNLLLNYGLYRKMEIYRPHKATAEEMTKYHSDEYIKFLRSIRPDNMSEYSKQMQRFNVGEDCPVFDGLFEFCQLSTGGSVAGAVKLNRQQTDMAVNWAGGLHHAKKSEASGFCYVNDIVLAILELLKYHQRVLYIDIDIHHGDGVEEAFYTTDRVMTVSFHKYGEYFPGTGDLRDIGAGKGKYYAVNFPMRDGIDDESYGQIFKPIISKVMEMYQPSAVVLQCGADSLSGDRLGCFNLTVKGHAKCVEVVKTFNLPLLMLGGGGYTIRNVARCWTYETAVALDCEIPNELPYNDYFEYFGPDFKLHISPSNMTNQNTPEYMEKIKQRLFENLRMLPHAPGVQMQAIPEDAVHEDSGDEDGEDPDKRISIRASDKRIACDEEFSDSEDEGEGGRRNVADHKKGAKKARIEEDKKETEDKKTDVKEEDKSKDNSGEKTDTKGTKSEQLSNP

With `C=CS(=O)(=O)N1CCN(C(=O)Cc2ccc(NC(=O)CCCCCCC(=O)NO)cc2)CC1` [Compound 10a, N ^1‐Hydroxy‐N ^8‐(4‐{2‐oxo‐2‐[4‐(vinylsulfonyl)piperazin‐1‐yl]ethyl}phenyl)octanediamide] the Dmax at 25 µM (HDAC2 [1]; MM1.S, MM.1S cells, 25 μM, 24 h, read-out: maximal degradation (Dmax) of HDAC2) was 46%, the “HDAC2 degradation” value (HDAC2 [1]; MM.1S cells, 1, 10, 25 μM, 6 h) was “none of the used concentrations resulted in the degradation” and the “HDAC2 protein levels” value (HDAC2 [1]; MM.1S cells, 1, 10, 25 μM, 24 h) was “slightly affected”. The IC50 (HDAC1 [2]) was 17 ± 1 nM, the IC50 [3] was 51 ± 4 nM and the IC50 (HDAC2 [4]) was 88 ± 7 nM. For the same compound, the “hyperacetylation of α-tubulin compared with vorinostat” value [5] was “comparable to its parent inhibitor, vorinostat”, the “level of acetylated α-tubulin” value [5] was “pronounced upregulation” and the “HDAC4 degradation” value (HDAC4; 6 h) was “none of the used concentrations resulted in the degradation”. The “HDAC4 protein levels” value (HDAC4; 24 h) was “minimal impact”, the IC50 (MM.1S cells [6]; MM.1S cells, CellTiter-Glo, n = 3, mean ± SD) was 6480 ± 1180 nM and the “effect on histone H3 acetylation compared with vorinostat” value [7] was “markedly lower than that of vorinostat”. The “level of acetylated histone H3” value [7] was “pronounced upregulation”, the “HDAC3 degradation” value (HDAC3; 6 h) was “none of the used concentrations resulted in the degradation” and the “HDAC3 protein levels” value (HDAC3; 24 h) was “minimal impact”. The IC50 (Human recombinant HDAC6) was 27 ± 8 nM, the “HDAC1 protein levels” value (HDAC1 [8]; 25 μM, immunoblot) was “induced a reduction of HDAC1 protein levels” and the DC50 (HDAC1 [8]; 0.37 up to 30 μM, western blot, read-out: half-maximal degradation concentration (DC50) for HDAC1) was 8800 ± 4400 nM. The Dmax at 25 µM (HDAC1 [8]; MM1.S, 25 μM, western blot, read-out: maximal degradation (Dmax) of HDAC1) was 74% and the “apoptosis induction: proportions of early and late apoptotic cells” value (MM.1S cells [9]) was “markedly increased”.

For `O=C(CCCCCCNC(=O)c1cnc(N(c2ccccc2)c2ccccc2)nc1)NO` [Ricolinostat], the IC50 (MM.1S cells [6]) was 2590 ± 270 nM.

`O=C(CCCCCCC(=O)Nc1ccccc1)NO` [Vorinostat] gave an IC50 (MM.1S cells [6]) of 790 ± 130 nM.

Source: publication PMC12238837, “DCAF16‐Based Covalent Molecular Glues for Targeted Protein Degradation of Histone Deacetylases” (Archiv Der Pharmazie, 2025)
